Measured values published in patent US8673289B2, “Attenuated uracil auxotroph of an apicomplexan and use thereof” (priority 2007, dated 2014).
Residue numbers refer to the chain shown, from its start. Names may count otherwise. Where two headings read alike, the source gives them in different places.

B1: E. c. G359F: E. coli CPS with ammonia tunnel wall mutation G359F (protein, UniProt P0A6F1 1-382; P00968 2-1073, looked up, variant G359F)
Carbamoyl phosphate synthase … 1: MIKSALLVLEDGTQFHGRAIGATGSAVGEVVFNTSMTGYQEILTDPSYSRQIVTLTYPHIGNVGTNDADEESSQVHAQGLVIRDLPLIASNFRNTEDLSSYLKRHNIVAIADIDTRKLTRLLREKGAQNGCIIAGDNPDAALALEKARAFPGLNGMDLAKEVTTAEAYSWTQGSWTLTGGLPEAKKEDELPFHVVAYDFGAKRNILRMLVDRGCRLTIVPAQTSAEDVLKMNPDGIFLSNGPGDPAPCDYAITAIQKFLETDIPVFGICLGHQLLALASGAKTVKMKFGHHGGNHPVKDVEKNVVMITAQNHGFAVDEATLPANLRVTHKSLFDGTLQGIHRTDKPAFSFQGHPEASPFPHDAAPLFDHFIELIEQYRKTAK
Carbamoyl phosphate synthase … 2: PKRTDIKSILILGAGPIVIGQACEFDYSGAQACKALREEGYRVILVNSNPATIMTDPEMADATYIEPIHWEVVRKIIEKERPDAVLPTMGGQTALNCALELERQGVLEEFGVTMIGATADAIDKAEDRRRFDVAMKKIGLETARSGIAHTMEEALAVAADVGFPCIIRPSFTMGGSGGGIAYNREEFEEICARGLDLSPTKELLIDESLIGWKEYEMEVVRDKNDNCIIVCSIENFDAMGIHTGDSITVAPAQTLTDKEYQIMRNASMAVLREIGVETGGSNVQFAVNPKNGRLIVIEMNPRVSRSSALASKATGFPIAKVAAKLAVGYTLDELMNDITGGRTPASFEPSIDYVVTKIPRFNFEKFAGANDRLTTQMKSVGEVMAIGRTQQESLQKALRGLEVGATGFDPKVSLDDPEALTKIRRELKDAGADRIWYIADAFRAGLSVDGVFNLTNIDRWFLVQIEELVRLEEKVAEVGITGLNADFLRQLKRKGFADARLAKLAGVREAEIRKLRDQYDLHPVYKRVDTCAAEFATDTAYMYSTYEEECEANPSTDREKIMVLGGGPNRIGQGIEFDYCCVHASLALREDGYETIMVNCNPETVSTDYDTSDRLYFEPVTLEDVLEIVRIEKPKGVIVQYGGQTPLKLARALEAAGVPVIGTSPDAIDRAEDRERFQHAVERLKLKQPANATVTAIEMAVEKAKEIGYPLVVRPSYVLGGRAMEIVYDEADLRRYFQTAVSVSNDAPVLLDHFLDDAVEVDVDAICDGEMVLIGGIMEHIEQAGVHSGDSACSLPAYTLSQEIQDVMRQQVQKLAFELQVRGLMNVQFAVKNNEVYLIEVNPRAARTVPFVSKATGVPLAKVAARVMAGKSLAEQGVTKEVIPPYYSVKEVVLPFNKFPGVDPLLGPEMRSTGEVMGVGRTFAEAFAKAQLGSNSTMKKHGRALLSVREGDKERVVDLAAKLLKQGFELDATHGTAIVLGEAGINPRLVNKVHEGRPHIQDRIKNGEYTYIINTTSGRRAIEDSRVIRRSALQYKVHYDTTLNGGFATAMALNADATEKVISVQEMHAQIK
modifications: mutation in small subunit
B2: E. c. T974A: E. coli CPS with regulatory domain mutation T974A (protein, UniProt P0A6F1 1-382; P00968 2-1073, looked up, variant T974A)
Carbamoyl phosphate synthase … 1: B1 Carbamoyl phosphate synthase … 1 with F359G
Carbamoyl phosphate synthase … 2: B1 Carbamoyl phosphate synthase … 2 with T973A
modifications: mutation in large subunit
B3: E. c. E761A: E. coli CPS with K-loop mutation E761A (protein, UniProt P0A6F1 1-382; P00968 2-1073, looked up, variant E761A)
Carbamoyl phosphate synthase … 1: B1 Carbamoyl phosphate synthase … 1 with F359G
Carbamoyl phosphate synthase … 2: B1 Carbamoyl phosphate synthase … 2 with E760A
modifications: mutation in large subunit
B4: E. c. C269A: E. coli CPS with catalytic triad mutation C269A (protein, UniProt P0A6F1 1-382; P00968 2-1073, looked up, variant C269A)
Carbamoyl phosphate synthase … 1: B1 Carbamoyl phosphate synthase … 1 with C269A, F359G
Carbamoyl phosphate synthase … 2: B1 Carbamoyl phosphate synthase … 2
modifications: mutation in small subunit
B5: E. c. H781K: E. coli CPS with K-loop mutation H781K (protein, UniProt P0A6F1 1-382; P00968 2-1073, looked up, variant H781K)
Carbamoyl phosphate synthase … 1: B1 Carbamoyl phosphate synthase … 1 with F359G
Carbamoyl phosphate synthase … 2: B1 Carbamoyl phosphate synthase … 2 with H780K
modifications: mutation in large subunit

How the values were obtained:
[1] = system: wild-type T. gondii; assay: labeling of parasites with [3H]pyrimidines (pyrimidine salvage); format: cell-based, Toxoplasma gondii; conditions: parasites grown in host cells
Description: Initial experiments primarily involved an enzymatic analysis of drug resistant mutants and the incorporation of various pyrimidine analogs into T. gondii RNA and DNA as an indication of pyrimidine salvage when parasites were grown in either normal host or mutant host cells. All biochemical communications between the parasite and host cells cross the vacuolar membrane which is now known to contain “pores” that permit the passage of nucleobases ranging in molecular mass from 112 daltons up to 244 daltons. The size of the pores is estimated to be approximately 1500 daltons. A T. gondii mutant resistant to 5-fluorodeoxyuridine (FUDR-1) had lost uracil phosphoribosyltransferase (UPRT), an enzyme which is absent in normal host cells (Pfefferkorn (1978) Expt. Parasitol. 44:26-35). […] FUDR-1 mutant parasites were not labeled with [^3H]deoxyuridine. […] FUDR-1 mutant parasites were not labeled with [^3H]uridine. […] FUDR-1 (UPRT knock-out) parasites were not labeled with [^3H]uracil.
Similarly, since uracil only labels the parasite, due to the parasite UPRT, which is absent in the host, the pyrimidine pools of the parasite are also unavailable to the host. Thus, there is no detectable pyrimidine traffic detected between the parasite and host.

[2] = system: cps1 and cps2 mutants; assay: pyrimidine dependence of cps1 and cps2 replication and plaque formation; format: cell-based, Toxoplasma gondii; conditions: relatively low (thymine, thymidine: moderate) concentrations in medium
Text: However, all of these mutants are somewhat “leaky” in that there was not an absolute growth (replication) dependence on uracil addition to the growth medium for replication. Each of these mutants grows at a moderate (½ of normal) growth rate for the first 2 days following infection of a host cell producing vacuoles that contained 16 to 32 parasites by 3 days post infection. In contrast, RH parasites are lysed out of their primary vacuoles at this time (3 days, >64 parasites). However, the cps mutants slow after 3 days and many parasites never (about ⅓) break out of their primary vacuole. If the primary vacuole breaks, a few parasites can be detected at the site of infection but the infection site always involves a small zone of infection that never forms a visible plaque in a standard 7 day plaque assay. To quantitate growth of these mutants, HFF flasks were inoculated with […] or cps2 parasites (about a multiplicity of infection (MOI) of 1 parasite per 20 HFF cells). After 2 hours of attachment and invasion (all of these mutants have normal attachment and invasion phenotypes as scored by counting percent entered parasites into host cells as a function of time post-inoculation), different concentrations of different pyrimidine compound was added to parallel infected HFF flasks. As a function of time post pyrimidine addition (t=0 hour) the number of parasites per vacuole was scored for 50 vacuoles as described by Fox et al. ((1999) supra). The number of parasite doublings was calculated based on 1 parasite entering each primary vacuole. Thus, 1 doubling=2 parasites per vacuole, 3 doublings=8 parasites per vacuole, and 5 doublings=32 parasites per vacuole. The pyrimidine dependence of cps1 and cps2 replication (doublings of parasites in the vacuole) was plotted graphically. […] The response to thymine and thymidine was additionally informative about the cause of the growth defect in cps1 and cps2. […] This is believed to be caused by the putative defect in the cps1 and cps2 mutants which is a reduced “pool” size of UMP. If UMP pools (ultimately used for RNA and DNA synthesis) are lowered it follows that a resulting decrease in TMP pools is expected since UMP is the precursor of TMP in T. gondii and all other apicomplexan parasites which normally lack TK activity. However, since cps1 and cps2 now express a TK activity carried into the parasite by the p53KOX3-1R plasmid, exemplified by sensitivity of these mutants to ganciclovir (specific to HSV TK), feeding parasites either thymine or thymidine is expected to increase TMP pools. Thus, it appears that moderate levels of thymine or thymidine partially rescue growth of cps1 and cps2 by restoring TMP pools. […] Since the parasite has no mechanism to convert TMP back to UMP there is still a defect in the UMP pool in cps1 and cps2 even with added thymine or thymidine and rescue is never complete. The ability of cps1 and cps2 mutants to form plaques on HFF monolayers in the standard 7 day assay paralleled the pyrimidine dependence of parasite replication in vacuoles.
The cps1 and cps2 mutants were inoculated intraperitoneally (i.p.) into balb/c mice to measure parasite virulence compared to virulent RH parasites. Both mutant cps1 and cps2 had equal virulence as RH parasites in balb/c mice (Jackson Labs), killing all mice within 10 days of i.p. inoculation (group size was four mice per parasite strain). Only 100 parasites (˜50 PFU) of each parasite strain was needed to kill all mice in each group. This pattern of virulence can be understood by re-examining the pyrimidine dependence of cps1 and cps2 growth. Uridine is believed to be the pyrimidine responsible for virulence of cps1 and cps2 in mice. Only 5 μM uridine completely rescues normal plaque size of cps1 and cps2 in vitro. Plasma concentrations of uridine in mice are approximately 5 to 10 μM.

[3] = system: cps1-1 and cps2-1; assay: pyrimidine rescue of cps1-1 and cps2-1 replication and plaque formation; format: cell-based, Toxoplasma gondii; conditions: 36-hour replication assay, HFF
Description: No pyrimidine compound at less than 25 μM could rescue plaque formation of cps1-1 or cps2-1. […] Uridine was quite poor at rescue of plaque formation in cps1-1 and cps2-1.
A more detailed growth response to pyrimidine, measured as parasite replications (doublings) was performed for cps1-1 and cps2-1 and compared to the results previously obtained for […]. […] Uridine rescue was poor, with a slow restoration of growth at very high amounts, >400 μM. Deoxyuridine rescue was significant, but again, full growth rate was not restored at any concentration of deoxyuridine. Rescue with uracil was robust, but only in a limited range of concentration. Full restoration of growth rate in cps1-1 and cps2-1 was possible only with uracil added between 200 and 400 μM. […] This phenotype can only be observed in T. gondii pyrimidine auxotroph mutants, not in wild-type parasites with intact de novo pyrimidine synthesis pathways.
The pyrimidine growth dependence of mutant cps1-1 on the pyrimidine salvage pathway was further documented in thymidine interference experiments. Mutant cps1-1 plaques well in 250 μM uracil or deoxyuridine, but not in 1000 μM thymidine. Since thymidine at 1000 μM is known to inhibit approximately 90% of the parasite nucleoside phosphorylase activity specific for cleavage of deoxyuridine (Iltzsch, (1993) J. Euk. Micro. 40:24-28), growth of cps1-1 was tested in combinations of 1000 μM thymidine and 250 μM uracil or 250 μM deoxyuridine. All pyrimidine salvage in T. gondii must pass through uracil and UPRT conversion of uracil to UMP. In contrast, thymidine has no effect on UPRT activity. Thus, if growth of cps1-1 were dependent on deoxyuridine supplementation then replication in this condition may be inhibited by co-supplementing with 1000 μM thymidine. […] Thus, when cps1-1 is grown in deoxyuridine the parasite strictly requires nucleoside phosphorylase activity to cleave deoxyuridine for growth. […] Thus, cps1-1 and cps2-1 rely strictly on pyrimidine salvage enzymes for growth and further, the HFF host cell in vitro cannot supply sufficient pyrimidines for growth of cps1-1 or cps2-1. […] Such potential inhibitors can only be identified using a pyrimidine auxotroph such as provided in the instant invention.
To assess reversion, 10^6 to 10^7 cps1-1 or cps2-1 parasites were periodically inoculated into HFF flasks supplemented with 5 μM uridine. This concentration of uridine is sufficient to rescue the parent strains (cps1 and cps2) of cps1-1 and cps2-1.

[4] = system: E. coli CPS; conditions: cited from earlier work

Molecule | incorporation of [3H]-labeled pyrimidine into wild-type parasites [1] | rescue of growth rate / replication of cps1 and cps2 [2] | rescue of replication (doublings) of cps1-1 and cps2-1 [3] | Effect on CPS or CPSII ([4]; effect on UMP repression) | Effect on CPS or CPSII ([4]; effect on ornithine activation) | also measured
Nc1ccn([C@@H]2O[C@H](CO)[C@@H](O)[C@H]2O)c(=O)n1 [cytidine] | did not incorporate | completely rescued | remained as a single non-replicated parasite | – | – | –
Nc1cc[nH]c(=O)n1 [cytosine] | did not incorporate | did not rescue at all | remained as a single non-replicated parasite | – | – | –
Nc1ccn([C@H]2C[C@H](O)[C@@H](CO)O2)c(=O)n1 [deoxycytidine] | – | completely rescued | remained as a single non-replicated parasite | – | – | –
O=C(O)c1cc(=O)[nH]c(=O)[nH]1 [orotic acid] | did not incorporate | – | – | – | – | –
B1 | – | – | – | – | – | Effect on CPS or CPSII ([4]; effect on GATase-CPS coupling): Uncouples GATase & CPS
B2 | – | – | – | Abolishes UMP repression | Reduces ornithine activation | Effect on CPS or CPSII ([4]; effect on IMP activation): Abolishes IMP activation
B3 | – | – | – | Abolishes UMP repression | Abolishes ornithine activation | –
B4 | – | – | – | – | – | Effect on CPS or CPSII [4]: Abolishes GATase activity
B5 | – | – | – | Reduces UMP repression | Reduces ornithine activation | –
